From article PMC5412352 (International Journal of Molecular Sciences, 2017)
Entries after “also recorded” stand apart in the source; their conditions may differ.

Tests used:
[1] = target: T1, hGhrR (COS7 cells stably transfected with hGhrR) (Homo sapiens, UniProt Q92847); test: Inositol phosphate accumulation assay, antagonistic potency with 10^-8 M ghrelin; format: cell-based
T1 construct: expressed in transfected cells
Procedure: Antagonistic properties at the hGhrR
antagonistic potency in an inositol phosphate accumulation assay (Table S1). The receptor was
Table S1. Inositol phosphate accumulation assay to determine antagonistic potencies of candidate
Compounds were analyzed by inositol phosphate accumulation in COS7 cells stably

adrenergic α1ARs = test: Commercial screening by Eurofins Panlabs; format: binding
chemokine CXCR3Rs = target: T2, chemokine CXCR3Rs (Homo sapiens, UniProt P49682); test: Commercial screening by Eurofins Panlabs; format: binding
T2 construct: Eurofins Panlabs (Taiwan), contract screening
T2 sequence (P49682 1-368): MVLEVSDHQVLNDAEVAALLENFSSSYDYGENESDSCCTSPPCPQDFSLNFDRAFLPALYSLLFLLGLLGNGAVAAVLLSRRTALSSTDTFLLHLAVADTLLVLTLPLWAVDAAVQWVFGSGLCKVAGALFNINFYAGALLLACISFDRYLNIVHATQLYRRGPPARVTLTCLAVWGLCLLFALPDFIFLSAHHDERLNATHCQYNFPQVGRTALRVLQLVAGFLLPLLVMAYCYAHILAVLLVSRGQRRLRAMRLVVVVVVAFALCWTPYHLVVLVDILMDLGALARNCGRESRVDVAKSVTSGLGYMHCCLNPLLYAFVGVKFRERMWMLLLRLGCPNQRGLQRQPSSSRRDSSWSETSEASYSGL

muscarinic M2Rs = target: T3, muscarinic M2Rs (Homo sapiens, UniProt P08172); test: Commercial screening by Eurofins Panlabs; format: binding
T3 construct: Eurofins Panlabs (Taiwan), contract screening
T3 sequence (P08172 1-466): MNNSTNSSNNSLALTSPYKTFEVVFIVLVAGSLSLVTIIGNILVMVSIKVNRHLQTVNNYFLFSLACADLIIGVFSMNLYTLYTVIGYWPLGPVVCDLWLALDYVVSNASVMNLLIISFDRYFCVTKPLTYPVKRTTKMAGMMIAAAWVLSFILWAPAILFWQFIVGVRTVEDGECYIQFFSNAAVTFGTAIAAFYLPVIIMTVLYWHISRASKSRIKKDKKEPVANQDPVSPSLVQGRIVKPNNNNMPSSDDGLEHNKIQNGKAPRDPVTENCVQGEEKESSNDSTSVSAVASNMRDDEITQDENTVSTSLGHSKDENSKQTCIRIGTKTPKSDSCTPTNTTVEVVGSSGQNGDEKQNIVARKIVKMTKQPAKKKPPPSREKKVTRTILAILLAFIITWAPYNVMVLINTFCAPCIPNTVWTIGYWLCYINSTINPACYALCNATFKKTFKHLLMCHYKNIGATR

serotonin 5-HT2BRs = target: T4, serotonin 5-HT2BRs (Homo sapiens, UniProt P41595); test: Commercial screening by Eurofins Panlabs; format: binding
T4 construct: Eurofins Panlabs (Taiwan), contract screening
T4 sequence (P41595 whole entry): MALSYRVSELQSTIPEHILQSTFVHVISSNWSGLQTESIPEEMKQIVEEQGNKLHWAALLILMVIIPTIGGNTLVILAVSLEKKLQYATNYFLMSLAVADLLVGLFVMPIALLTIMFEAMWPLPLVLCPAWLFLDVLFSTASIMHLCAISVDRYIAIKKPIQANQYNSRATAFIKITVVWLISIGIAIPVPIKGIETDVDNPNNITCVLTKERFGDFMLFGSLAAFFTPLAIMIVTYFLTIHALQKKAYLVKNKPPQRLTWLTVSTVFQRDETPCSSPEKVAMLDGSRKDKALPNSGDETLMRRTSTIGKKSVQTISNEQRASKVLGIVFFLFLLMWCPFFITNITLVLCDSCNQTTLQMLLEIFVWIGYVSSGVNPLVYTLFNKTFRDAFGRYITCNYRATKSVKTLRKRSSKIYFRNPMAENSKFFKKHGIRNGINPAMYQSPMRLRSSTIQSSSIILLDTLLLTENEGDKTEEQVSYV

T1 sequence (Q92847 whole entry): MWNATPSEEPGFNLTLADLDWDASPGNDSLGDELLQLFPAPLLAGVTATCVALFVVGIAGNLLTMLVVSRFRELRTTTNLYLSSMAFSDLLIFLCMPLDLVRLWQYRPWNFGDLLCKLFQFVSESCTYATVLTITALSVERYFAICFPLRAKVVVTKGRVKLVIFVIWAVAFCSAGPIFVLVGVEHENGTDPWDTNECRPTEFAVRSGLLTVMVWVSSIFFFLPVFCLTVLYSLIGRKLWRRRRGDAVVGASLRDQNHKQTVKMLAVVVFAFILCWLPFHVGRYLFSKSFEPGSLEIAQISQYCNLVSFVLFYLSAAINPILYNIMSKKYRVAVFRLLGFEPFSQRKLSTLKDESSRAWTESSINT

Cc1nc2ccc(Oc3ccc(Br)cc3F)nc2c(=O)n1C[C@H]1CCCN(C(C)C)C1 [(S)-9, (S)-6-(4-Bromo-2-fluorophenoxy)-3-((1-isopropylpiperidin-3-yl)methyl)-2-methylpyrido[3,2-d]pyrimidin-4(3H)-one]
IC50 ([1]; 5 min pre-stimulation with compound, then 10^-8 M ghrelin, read-out: IC50 (antagonistic potency)): 24.8 nM
Emax ([1]; COS-7, read-out: Emax (antagonistic efficacy)): 38 ± 4%
significant response (≥50% inhibition or stimulation) (adrenergic α1ARs): did not show significant responses; also recorded: did not show significant binding
significant response (≥50% inhibition or stimulation) (chemokine CXCR3Rs): did not show significant responses; also recorded: did not show significant binding
significant response (≥50% inhibition or stimulation) (muscarinic M2Rs): did not show significant responses; also recorded: did not show significant binding
significant response (≥50% inhibition or stimulation) (serotonin 5-HT2BRs): did not show significant responses; also recorded: did not show significant binding
